ChEMBL document CHEMBL1201862, “PubChem BioAssay data set” (2004)
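Briefly, cells in 96-well plates were exposed to five compound concentrations for 48 h, and endpoints were estimated by linear interpolation. GI50 marks 50% less growth.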 Activity calls are given as the source filed them. Cut-off read from the data, not from the text of the source: active = GI50 up to about 1.1 µM and inactive = higher.

Legend:
Assay in all cases: growth of human tumour cells (NCI), 48 h
786-0 = test system: 786-0
A498 = test system: A498
A549 = test system: A549
ACHN = test system: ACHN
BT-549 = test system: BT-549
CAKI-1 = test system: CAKI-1
CCRF-CEM = test system: CCRF-CEM
COLO 205 = test system: COLO 205
DLD-1 = test system: DLD-1
DMS-114 = test system: DMS-114
DMS-273 = test system: DMS-273
DU-145 = test system: DU-145
EKVX = test system: EKVX
HCC 2998 = test system: HCC 2998
HCT-116 = test system: HCT-116
HCT-15 = test system: HCT-15
HL-60 = test system: HL-60
HOP-18 = test system: HOP-18
HOP-62 = test system: HOP-62
HOP-92 = test system: HOP-92
HT-29 = test system: HT-29
Hs-578T = test system: Hs-578T
IGROV-1 = test system: IGROV-1
K562 = test system: K562
KM-20L2 = test system: KM-20L2
KM12 = test system: KM12
LOX IMVI = test system: LOX IMVI
LXFL 529 = test system: LXFL 529
M14 = test system: M14
M19-MEL = test system: M19-MEL
MCF7 = test system: MCF7
MDA-MB-231 = test system: MDA-MB-231
MDA-MB-435 = test system: MDA-MB-435
MDA-N = test system: MDA-N
MOLT-4 = test system: MOLT-4
Malme-3M = test system: Malme-3M
NCI-H226 = test system: NCI-H226
NCI-H23 = test system: NCI-H23
NCI-H460 = test system: NCI-H460
NCI-H522 = test system: NCI-H522
NCI/ADR-RES = test system: NCI/ADR-RES
OVCAR-3 = test system: OVCAR-3
OVCAR-4 = test system: OVCAR-4
OVCAR-5 = test system: OVCAR-5
OVCAR-8 = test system: OVCAR-8
PC-3 = test system: PC-3
RPMI-8226 = test system: RPMI-8226
RXF 393 = test system: RXF 393
RXF 631 = test system: RXF 631
SF-268 = test system: SF-268
SF-295 = test system: SF-295
SF-539 = test system: SF-539
SK-MEL-28 = test system: SK-MEL-28
SK-MEL-2 = test system: SK-MEL-2
SK-MEL-5 = test system: SK-MEL-5
SK-OV-3 = test system: SK-OV-3
SN12C = test system: SN12C
SNB-19 = test system: SNB-19
SNB-75 = test system: SNB-75
SNB-78 = test system: SNB-78
SR = test system: SR
SW-620 = test system: SW-620
T47D = test system: T47D
TK-10 = test system: TK-10
U-251 = test system: U-251
UACC-257 = test system: UACC-257
UACC-62 = test system: UACC-62
UO-31 = test system: UO-31
XF498 = test system: XF498

`CCOC(=O)C(=O)NNc1nc2c(s1)C(=O)c1ccccc1C2=O` was tested, and the GI50 (786-0) was 10.6 µM (inactive), the GI50 (A498) was 22.8 µM (inactive) and the GI50 (A549) was 6.07 µM (inactive). The GI50 (ACHN) was 2.29 µM (inactive), the GI50 (BT-549) was 10.9 µM (inactive) and the GI50 (CAKI-1) was 20.3 µM (inactive). For the same compound, the GI50 (CCRF-CEM) was 2.34 µM (inactive), the GI50 (COLO 205) was 12.4 µM (inactive) and the GI50 (DLD-1) was 5.04 µM (inactive). For the same compound, the GI50 (DMS-114) was 1.76 µM (inactive), the GI50 (DMS-273) was 4.57 µM (inactive) and the GI50 (DU-145) was 17.7 µM (inactive). The GI50 (EKVX) was 7.46 µM (inactive), the GI50 (HCC 2998) was 14.9 µM (inactive) and the GI50 (HCT-116) was 2.68 µM (inactive). For the same compound, the GI50 (HCT-15) was 2.54 µM, the GI50 (HL-60) was 1.47 µM (inactive) and the GI50 (HOP-18) was 2.24 µM (inactive). The GI50 (HOP-62) was 10.8 µM (inactive), the GI50 (HOP-92) was 10.5 µM (inactive) and the GI50 (HT-29) was 19.1 µM (inactive). For the same compound, the GI50 (Hs-578T) was 2.87 µM (inactive), the GI50 (IGROV-1) was 5.56 µM (inactive) and the GI50 (K562) was 2.3 µM (inactive). For the same compound, the GI50 (KM-20L2) was 18.1 µM (inactive), the GI50 (KM12) was 9.27 µM (inactive) and the GI50 (LOX IMVI) was 1.75 µM (inactive). The GI50 (LXFL 529) was 1.82 µM (inactive), the GI50 (M14) was 2.08 µM (inactive) and the GI50 (M19-MEL) was 0.544 µM (active). The GI50 (MCF7) was 15.6 µM (inactive), the GI50 (MDA-MB-231) was 2.48 µM (inactive) and the GI50 (MDA-MB-435) was 1.77 µM (inactive). For the same compound, the GI50 (MDA-N) was 1.8 µM (inactive), the GI50 (MOLT-4) was 3.33 µM (inactive) and the GI50 (Malme-3M) was 1.95 µM (inactive). For the same compound, the GI50 (NCI-H226) was 15.7 µM (inactive), the GI50 (NCI-H23) was 2.24 µM (inactive) and the GI50 (NCI-H460) was 10.7 µM (inactive). The GI50 (NCI-H522) was 4.49 µM (inactive), the GI50 (NCI/ADR-RES) was 1.87 µM (inactive) and the GI50 (OVCAR-3) was 1.88 µM (inactive). The GI50 (OVCAR-4) was 1.85 µM (inactive), the GI50 (OVCAR-5) was 9.35 µM (inactive) and the GI50 (OVCAR-8) was 1.97 µM (inactive). The GI50 (PC-3) was 12 µM (inactive), the GI50 (RPMI-8226) was 2.65 µM (inactive) and the GI50 (RXF 393) was 4.78 µM (inactive). The GI50 (RXF 631) was 11.2 µM (inactive), the GI50 (SF-268) was 4.12 µM (inactive) and the GI50 (SF-295) was 5.01 µM (inactive). The GI50 (SF-539) was 2.46 µM (inactive), the GI50 (SK-MEL-28) was 3.06 µM (inactive) and the GI50 (SK-MEL-2) was 3.95 µM (inactive). The GI50 (SK-MEL-5) was 1.86 µM (inactive), the GI50 (SK-OV-3) was 20 µM (inactive) and the GI50 (SN12C) was 1.87 µM (inactive). The GI50 (SNB-19) was 15.1 µM (inactive), the GI50 (SNB-75) was 3.65 µM (inactive) and the GI50 (SNB-78) was 2.54 µM (inactive). The GI50 (SR) was 0.465 µM (active), the GI50 (SW-620) was 2.58 µM (inactive) and the GI50 (T47D) was 17.8 µM (inactive). The GI50 (TK-10) was 24.5 µM (inactive), the GI50 (U-251) was 7.06 µM (inactive) and the GI50 (UACC-257) was 1.71 µM (inactive). The GI50 (UACC-62) was 4.94 µM (inactive), the GI50 (UO-31) was 2.29 µM (inactive) and the GI50 (XF498) was 2.09 µM (inactive).
